Experiments:
[1] = biological target: Bcr/Abl fusion protein (Homo sapiens, UniProt P00519, T315I); assay: Inhibition of Bcr-Abl T315I mutant (unknown origin) by ADP-Glo assay; assay type: protein assay
[2] = tested on: K562; assay: Cytotoxicity against human K562 cells expressing Bcr-Abl assessed as growth inhibition after 48 hrs by MTT assay; settings: K562, 48 h
[3] = biological target: Bcr/Abl fusion protein (Homo sapiens, UniProt P00519); assay: Inhibition of wild type Bcr-Abl (unknown origin) by ADP-Glo assay; assay type: protein assay

| IC50 [1] [µM] | IC50 [3] [nM] | SMILES | IC50 [2] [µM] |
| --- | --- | --- | --- |
| 0.45 | 14 | Nc1n[nH]c2cccc(-c3ccc(C(=O)N4CCN(C(=O)c5ccc(Cl)cc5Cl)CC4)cc3)c12 | 6.5 |
| > 100 | 8560 | Cc1ccccc1C(=O)N1CCN(C(=O)c2ccc(-c3cccc4[nH]nc(N)c34)cc2)CC1 | 17.2 |
| > 100 | > 100000 | COc1ccc(C(=O)N2CCN(C(=O)c3ccc(-c4cccc5[nH]nc(N)c45)cc3)CC2)cc1 | 69.7 |
| 75.3 | 14300 | Nc1n[nH]c2cccc(-c3ccc(C(=O)NCCNC(=O)c4ccc(F)c(F)c4)cc3)c12 | 28.4 |
| > 100 | 250 | COc1ccccc1C(=O)NCCNC(=O)c1ccc(-c2cccc3[nH]nc(N)c23)cc1 | 13.9 |
| 83.5 | > 100000 | Nc1n[nH]c2cccc(-c3ccc(C(=O)N4CCN(C(=O)c5ccc(F)c(F)c5)CC4)cc3)c12 | 21.5 |
| > 100 | > 100000 | COc1ccc(C(=O)NCCNC(=O)c2ccc(-c3cccc4[nH]nc(N)c34)cc2)cc1 | 258 |
| 65.6 | 1890 | Nc1n[nH]c2cccc(-c3ccc(C(=O)N4CCN(C(=O)c5ccc(Cl)cc5)CC4)cc3)c12 | 10.5 |
| 2.07 | 86 | Nc1n[nH]c2cccc(-c3ccc(C(=O)N4CCN(C(=O)c5cccc(F)c5)CC4)cc3)c12 | 30.2 |
| 94.6 | 2760 | Nc1n[nH]c2cccc(-c3ccc(C(=O)N4CCN(C(=O)c5cccc(C(F)(F)F)c5)CC4)cc3)c12 | 18.1 |
| 0.74 | 180 | Nc1n[nH]c2cccc(-c3ccc(C(=O)N4CCN(C(=O)c5ccccc5Br)CC4)cc3)c12 | 47.3 |
| > 100 | 2370 | Cc1cccc(C(=O)N2CCN(C(=O)c3ccc(-c4cccc5[nH]nc(N)c45)cc3)CC2)c1 | 21.8 |
| 1.04 | 31 | Nc1n[nH]c2cccc(-c3ccc(C(=O)NCCNC(=O)c4ccccc4Br)cc3)c12 | 13.1 |
|  |  | Cc1nc(Nc2ncc(C(=O)Nc3c(C)cccc3Cl)s2)cc(N2CCN(CCO)CC2)n1 [DASATINIB] | 0.45 |
| > 100 |  | COc1cc(OC)cc(C(=O)N2CCN(C(=O)c3ccc(-c4cccc5[nH]nc(N)c45)cc3)CC2)c1 | 105 |
| > 100 | 49200 | COc1cccc(C(=O)N2CCN(C(=O)c3ccc(-c4cccc5[nH]nc(N)c45)cc3)CC2)c1 | 9.6 |
| > 100 |  | Nc1n[nH]c2cccc(-c3ccc(C(=O)NCCNC(=O)c4cccc(F)c4)cc3)c12 | 26.9 |
| > 100 | 22800 | COc1ccccc1C(=O)N1CCN(C(=O)c2ccc(-c3cccc4[nH]nc(N)c34)cc2)CC1 | 32.1 |
| 56.3 | 450 | Nc1n[nH]c2cccc(-c3ccc(C(=O)NCCNC(=O)c4cccc(C(F)(F)F)c4)cc3)c12 | 61.9 |
| 28.8 | 18 | Cc1ccccc1C(=O)NCCNC(=O)c1ccc(-c2cccc3[nH]nc(N)c23)cc1 | 8 |
| 3.41 | 84 | Nc1n[nH]c2cccc(-c3ccc(C(=O)N4CCN(C(=O)c5ccccc5Cl)CC4)cc3)c12 | 53.7 |

Source: ChEMBL document CHEMBL3632610, “Expanding the structural diversity of Bcr-Abl inhibitors: Dibenzoylpiperazin incorporated with 1H-indazol-3-amine” (Eur J Med Chem, 2015)
